The source of these data is ChEMBL document CHEMBL2311395, “One pot solvent free synthesis and in vitro antitubercular screening of 3-Aracylphthalides against Mycobacterium tuberculosis” (Bioorg Med Chem Lett, 2013).

≈ marks a conversion by molar mass, not a printed value.

For this assay, the system named is Mycobacterium tuberculosis. Nature of the assay: Antitubercular activity against Mycobacterium tuberculosis H37Ra ATCC 25177 assessed as growth inhibition after 8 days by XTT reduction menadione assay. It counts as functional, organism-based. The conditions noted are these: H37Ra ATCC 25177, 192 h. Background: Formazan colour is commonly taken as a measure of viable cells.

What is called IC50 is the concentration needed to halve the response being measured. A word on the IC90: it is the point of the concentration-response curve where the effect stands at 90%.

As to `O=C(CC1OC(=O)c2ccccc21)c1ccc(Cl)cc1` (centres undefined), the IC50 is 0.97 µg/mL (≈ 3.38 µM).

Turning to `NNC(=O)c1ccncc1` [ISONIAZID], the IC90 amounted to 0.125 µg/mL (≈ 0.911 µM).

As for `O=C(CC1OC(=O)c2ccccc21)c1cccs1` (centres undefined), the IC50 worked out at 1.24 µg/mL (≈ 4.8 µM).

Consider `O=C(CC1OC(=O)c2ccccc21)c1ccco1` (centres undefined), for which the IC50 stood at 0.81 µg/mL (≈ 3.34 µM).
